In patent publication US20230357134A1, “AGENTS FOR USE IN THE TREATMENT OF AMYLOIDOSIS” (UCL BUSINESS LTD, priority 2020, published 2023):
pIC50: −log10 of the molar value.

Key:
isolated wild type TTR = target: T1, isolated wild type TTR (Homo sapiens, UniProt P02766); experiment: Displacement of 125I-T4 from isolated wild type TTR in buffer; conditions: concentration of ligand reducing binding of 125I-T4 by TTR by 50%, 125 nM TTR, pH 8.0, overnight 4° C., mean of at least 3 replicates; for pIC50: read-out: D50 buffer
T1 construct: the non-covalently associated protomers, of mass 13,761, each contain 127 residues; His6 (N); TEV cleavage site (N); made in house; host or cells: E. coli BL21 (DE3)
Procedure: 3. Evaluation of Ligand Activity Based on Capacity to Displace ^125I-Thyroxine (T4) from TTR in Buffer/Human Plasma 3.1 Displacement of ^125I-T4 from Isolated Wild Type TR.
Competition of ligands with T4 for binding by TTR was assayed quantitatively by a previously described procedure (Kolstoe et al., 2010). Briefly, a solution of 125 nM TTR in 0.1 M Tris-HCl, 0.1 M NaCl and 0.001 M EDTA buffer, pH 8.0, was incubated overnight at 4° C. in the presence of 1.07 nM ^125I T4 (1,200 μCi/μg, 200 μCi/ml, Perkin Elmer) and increasing concentrations of inhibitor (0-5 μM) in 40 μl final volume. ^125I T4 bound by TTR was separated from unbound T4 by gel filtration chromatography using Micro Bio Spin 6 columns (Bio-Rad) previously equilibrated with the reaction buffer containing 1% w/v BSA. After counting with a Wizard2 gamma counter (Perkin-Elmer) for 60 s, percentage binding was plotted against the logarithm of the inhibitor concentration, and D50 (concentration of ligand reducing the binding of T4 by TTR by 50%) was determined using a four parameters dose-response curve with GraphPad Prism 5 (Table 1).

[1] = target: T2, TTR in whole human plasma (Homo sapiens, UniProt P02766); experiment: Displacement of 125I-T4 from TTR in normal human plasma; format: binding; conditions: wild type TTR, 30 min 37° C. with ligand, immunoprecipitation, mean of at least 3 replicates; for pIC50: read-out: D50 plasma
T2 construct: TTR in whole plasma, from individuals homozygous for wild type TTR; from tissue; host or cells: whole human plasma
Procedure: 3.2 Displacement of ^125-T4 from TTR in Normal Human Plasma.
The displacement of ^125I-T4 from TTR in whole plasma, from individuals homozygous for wild type TTR, was studied by incubating plasma with each ligand at increasing concentrations for 30 min at 37° C., further incubation with […] followed by measurement of the radioactivity in the immunoprecipitate obtained with anti-TTR antibodies. […] Percentage binding was plotted against the logarithm of the inhibitor concentration, and D50 (concentration of ligand reducing the binding of T4 by TTR by 50%) was determined using a four parameter dose-response curve with GraphPad Prism 5 (Table 1).

[2] = target: T3, recombinant Val122Ile TTR (Homo sapiens, UniProt P02766, V142I); experiment: Mechano-enzymatic fibrillogenesis, TTR aggregation by turbidity at 400 nm; format: biochemical; conditions: equimolar ligand, Val122Ile TTR 9 μM, trypsin, 96 h; 100 % = protein without ligand; mean (SD)
T3 construct: the non-covalently associated protomers, of mass 13,761, each contain 127 residues; His6 (N); TEV cleavage site (N); made in house; host or cells: E. coli BL21 (DE3)
Procedure: (§1) Briefly, fibrillogenesis of recombinant Val122Ile TTR at 0.5 mg/ml (9 μM) in PBS, pH 7.4 was carried out in glass vials stirred at 1,400 rpm (IKA magnetic stirrer) and 37° C. in the presence and in the absence of trypsin (5 ng/μl). […] Each ligand was tested at 4 different concentrations (4.5, 9, 18, 36 μM respectively) corresponding to the following drug/TTR molar ratios of 0.5:1, 1:1, 2:1 and 4:1. Several dilutions of the drug stock solutions were made in order to add the same volume of DMSO to each sample. Control samples without drug were added with the same volume of DMSO only. To allow complete binding of ligand by TTR each sample was incubated for 30 min at 37° C. before addition of trypsin. Spectrophotometric turbidity at 400 nm was used to monitor fibril formation over time until it reached a plateau at 96 h. Aggregation of TTR in the presence of equimolar ligand concentrations was quantified as spectrophotometric turbidity at 400 nm as a proportion of 100% for aggregation of the protein in the absence of ligands (Table 2).

[3] = target: T3, recombinant Val122Ile TTR; experiment: Mechano-enzymatic fibrillogenesis, TTR amyloid by ThT emission fluorescence; format: biochemical; conditions: equimolar ligand, 96 h pellets, normalized to 100 % without ligand, mean (SD)
Procedure: as §1
At the end of the 96 h aggregation, pellets were harvested from each protein sample by 20 min centrifugation at 11,600 g, thoroughly rinsed with PBS to remove non-bound ligand, resuspended with 100 μl PBS, pH 7.4 containing 10 μM ThT in Costar 96-well black-wall plates. Bottom fluorescence values (excitation 440 nm, emission 480 nm) were recorded using a BMG LABTECH FLUostar Omega plate reader. Each value was normalized to the ThT signal of the TTR sample without ligand (Table 2)

| SMILES | pIC50 (isolated wild type TTR) | pIC50 [1] | % Aggregation (Turbidity method) [2] | % Aggregation (Fluorescence method) [3] | D50 plasma [1] | D50 buffer (isolated wild type TTR) |
| --- | --- | --- | --- | --- | --- | --- |
| O=C(O)CCc1cc(Cl)c(OCCCOCCCOc2c(Cl)cc(-c3nc4ccc(C(=O)O)cc4o3)cc2Cl)c(Cl)c1 [Compound B7, 2-[4-[3-[3-[4-(2-carboxyethyl)-2,6-dichloro-phenoxy]propoxy]propoxy]-3,5-dichloro-phenyl]-1,3-benzoxazole-6-carboxylicacid] | 7.00 | 4.74 | 4.99 (1.88) % | 8.23 (2.61) % | – | – |
| Cc1n[nH]c(COCCCCOCCOc2c(Cl)cc(CCC(=O)O)cc2Cl)c1CCCOc1cc(C(=O)O)ccc1F [Compound B10, 3-[3-[5-[4-[2-[4-(2-carboxyethyl)-2,6-dichloro-phenoxy]ethoxy]butoxymethyl]-3-methyl-1H-pyrazol-4-yl]propoxy]-4-fluoro-benzoic acid] | 5.25 | – | 14.88 (nd) % | 16.6 (nd) % | no binding | – |
| Cc1n[nH]c(COCCCOCCCOc2c(Cl)cc(CCC(=O)O)cc2Cl)c1CCCOc1cc(C(=O)O)ccc1F [Compound B9, 3-[3-[5-[3-[3-[4-(2-carboxyethyl)-2,6-dichloro-phenoxy]propoxy]propoxymethyl]-3-methyl-1H-pyrazol-4-yl]propoxy]-4-fluorobenzoic acid] | 5.87 | – | 17.1 (0.66) % | 9.34 (4.36) % | no binding | – |
| O=C(O)CCOCCCOCCCOCCCOc1c(Cl)cc(Nc2ccccc2C(=O)O)cc1Cl [Compound B6, 2-[4-[3-[3-[3-(2-carboxyethoxy)propoxy]propoxy]propoxy]-3,5-dichloro-anilino]benzoic acid] | 5.93 | 4.40 | 6.24 (1.71) % | 12.0 (4.44) % | – | – |
| O=C(O)COCCOCCOCCOc1c(Cl)cc(Nc2ccccc2C(=O)O)cc1Cl [Compound B5, 2-[4-[2-[2-[2-(carboxymethoxy)ethoxy]ethoxy]ethoxy]-3,5-dichloro-anilino]benzoic acid] | 5.34 | 4.18 | 17.3 (14.8) % | 28.8 (13.4) % | – | – |
| O=C(O)CCc1cc(Cl)c(OCC[C@H](O)[C@@H](O)CCOc2c(Cl)cc(Nc3ncccc3C(=O)O)cc2Cl)c(Cl)c1 (stereo in doubt) [Compound B3A, 2-[4-[(3S,4S)-6-[4-(2-carboxyethyl)-2,6-dichloro-phenoxy]-3,4-dihydroxy-hexoxy]-3,5-dichloro-anilino]pyridine-3-carboxylicacid] | – | – | 5.76 (2.32) % | 8.63 (5.17) % | – | – |
| Cc1n[nH]c(COCCOCCCOc2c(Cl)cc(CCC(=O)O)cc2Cl)c1CCCOc1cc(C(=O)O)ccc1F [Compound B11, 3-[3-[5-[2-[3-[4-(2-carboxyethyl)-2,6-dichloro-phenoxy]propoxy]ethoxymethyl]-3-methyl-1H-pyrazol-4-yl]propoxy]-4-fluoro-benzoic acid] | 6.30 | – | – | – | no binding | – |
| O=C(O)CCc1cc(Cl)c(OCC[C@@H](O)[C@H](O)CCOc2c(Cl)cc(Nc3ccccc3C(=O)O)cc2Cl)c(Cl)c1 [Compound B4A, 2-[4-[(3R,4R)-6-[4-(2-carboxyethyl)-2,6-dichloro-phenoxy]-3,4-dihydroxy-hexoxy]-3,5-dichloro-anilino]benzoicacid] | 7.18 | 5.64 | 4.99 (0.46) % | 3.30 (1.19) % | – | – |

Next, values leading:

| pIC50 (isolated wild type TTR) | pIC50 [1] | % Aggregation (Turbidity method) [2] | % Aggregation (Fluorescence method) [3] | D50 plasma [1] | D50 buffer (isolated wild type TTR) | SMILES |
| --- | --- | --- | --- | --- | --- | --- |
| 7.15 | 5.15 | 11.6 (8.30) % | 8.54 (6.10) % | – | – | O=C(O)CCc1cc(Cl)c(OCC[C@@H](O)[C@H](O)CCOc2ccc(Nc3ccccc3C(=O)O)cc2Cl)c(Cl)c1 [Compound B20, 2-[4-[(3R,4R)-6-[4-(2-carboxyethyl)-2,6-dichloro-phenoxy]-3,4-dihydroxy-hexoxy]-3-chloro-anilino]benzoic acid] |
| 7.15 | 5.19 | 6.43 (2.12) % | 15.5 (3.25) % | – | – | O=C(O)CCc1ccc(OCC[C@@H](O)[C@H](O)CCOc2ccc(Nc3ccccc3C(=O)O)cc2Cl)c(Cl)c1 [Compound B22, 2-[4-[(3R,4R)-6-[4-(2-carboxyethyl)-2-chloro-phenoxy]-3,4-dihydroxy-hexoxy]-3-chloro-anilino]benzoic acid] |
| 7.00 | 4.76 | 4.52 (1.08) % | 3.86 (2.29) % | – | – | O=C(O)CCc1cc(Cl)c(OCC[C@@H](O)[C@H](O)CCOc2ccc(-c3nc4ccc(C(=O)O)cc4o3)cc2Cl)c(Cl)c1 [Compound B17, 2-[4-[(3R,4R)-6-[4-(2-carboxyethyl)-2,6-dichloro-phenoxy]-3,4-dihydroxy-hexoxy]-3-chloro-phenyl]-1,3-benzoxazole-6-carboxylic acid] |
| – | – | – | 75 (30) % | – | No binding | O=C(O)Cc1cc(Cl)c(OCCCOCCOc2c(Cl)cc(CC(=O)O)cc2Cl)c(Cl)c1 [Compound B33, reference compound] |
| 6.80 | < 4.00 | 3.99 (0.928) % | 7.27 (1.17) % | – | – | O=C(O)CCc1ccc(OCCCOCCCOc2c(Cl)cc(-c3nc4ccc(C(=O)O)cc4o3)cc2Cl)c(Cl)c1 [Compound B19, 2-[4-[3-[3-[4-(2-carboxyethyl)-2-chloro-phenoxy]propoxy]propoxy]-3,5-dichloro-phenyl]-1,3-benzoxazole-6-carboxylic acid] |
| 7.10 | 4.70 | 9.30 (4.32) % | 24.5 (8.90) % | – | – | O=C(O)CCc1cc(Cl)c(OCCCOCCOc2c(Cl)cc(-c3nc4ccc(C(=O)O)cc4o3)cc2Cl)c(Cl)c1 [Compound B28, 2-[4-[2-[3-[4-(2-carboxyethyl)-2,6-dichloro-phenoxy]propoxy]ethoxy]-3,5-dichloro-phenyl]-1,3-benzoxazole-6-carboxylic acid] |
| – | – | 5.73 (0.50) % | 12.6 (3.17) % | – | – | O=C(O)CCc1cc(Cl)c(OCC/C=C/CCOc2c(Cl)cc(Nc3ccccc3C(=O)O)cc2Cl)c(Cl)c1 [Compound B14, 2-[4-[(E)-6-[4-(2-carboxyethyl)-2,6-dichloro-phenoxy]hex-3-enoxy]-3,5-dichloro-anilino]benzoic acid] |
| – | – | 5.31 (0.62) % | 9.76 (4.50) % | – | – | O=C(O)CCc1cc(Cl)c(OCC/C=C/CCOc2c(Cl)cc(Nc3ncccc3C(=O)O)cc2Cl)c(Cl)c1 [Compound B13, (E)-2-((4-((6-(4-(2-carboxyethyl)-2,6-dichlorophenoxy)hex-3-en-1-yl)oxy)-3,5-dichlorophenyl)amino)nicotinic acid] |
